Experiments:
[1] = target: DNA polymerase III subunit alpha (Bacillus subtilis (strain 168), UniProt O34623); assay: DNA Polymerase Activity Assay; details: pH 7.5; 30 °C
Procedure: (§1) Reaction velocities were determined at each dGTP concentration and used to create double reciprocal plots of velocity versus dGTP concentration. The plots were used to assess the mechanism of inhibition and calculate the apparent Ki value for the inhibitor.

[2] = target: DNA polymerase III subunit alpha (Escherichia coli (strain K12), UniProt P10443); assay: DNA Polymerase Activity Assay; details: pH 7.5; 30 °C
Procedure: as §1

[3] = target: T1, DNA polymerase alpha subunit B (Bos taurus, UniProt Q58D13); assay: DNA Polymerase Activity Assay; details: pH 7.5; 37 °C
T1 sequence (Q58D13 whole entry): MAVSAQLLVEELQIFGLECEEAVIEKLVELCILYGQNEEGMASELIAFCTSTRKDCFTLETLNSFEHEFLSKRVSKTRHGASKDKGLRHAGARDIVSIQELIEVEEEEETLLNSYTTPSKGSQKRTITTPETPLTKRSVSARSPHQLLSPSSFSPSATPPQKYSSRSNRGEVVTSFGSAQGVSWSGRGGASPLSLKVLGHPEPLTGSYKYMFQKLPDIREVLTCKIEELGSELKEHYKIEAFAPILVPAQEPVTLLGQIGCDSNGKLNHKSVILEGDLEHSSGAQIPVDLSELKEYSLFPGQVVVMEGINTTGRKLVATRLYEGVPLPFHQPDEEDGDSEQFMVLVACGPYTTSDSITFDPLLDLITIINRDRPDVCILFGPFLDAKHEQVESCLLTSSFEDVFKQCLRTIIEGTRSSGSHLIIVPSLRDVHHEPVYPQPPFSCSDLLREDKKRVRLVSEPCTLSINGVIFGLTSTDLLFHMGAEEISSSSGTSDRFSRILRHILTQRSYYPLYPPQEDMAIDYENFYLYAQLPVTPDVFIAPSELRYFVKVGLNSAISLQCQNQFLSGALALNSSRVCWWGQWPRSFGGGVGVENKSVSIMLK
Procedure: as §1

[4] = target: DNA topoisomerase 4 subunit A [V210L]/B (Bacillus subtilis, UniProt Q45066+Q59192, V210L); assay: DNA Topoisomerase IV Assay; details: pH 7.5; 30 °C
DNA gyrase subunit A/B = DNA gyrase subunit A/B (Bacillus subtilis (strain 168), UniProt P05652+P05653); assay: DNA Gyrase Activity Assay; details: pH 7.5; 30 °C
DNA gyrase subunit A/B, sequence (P05653 whole entry): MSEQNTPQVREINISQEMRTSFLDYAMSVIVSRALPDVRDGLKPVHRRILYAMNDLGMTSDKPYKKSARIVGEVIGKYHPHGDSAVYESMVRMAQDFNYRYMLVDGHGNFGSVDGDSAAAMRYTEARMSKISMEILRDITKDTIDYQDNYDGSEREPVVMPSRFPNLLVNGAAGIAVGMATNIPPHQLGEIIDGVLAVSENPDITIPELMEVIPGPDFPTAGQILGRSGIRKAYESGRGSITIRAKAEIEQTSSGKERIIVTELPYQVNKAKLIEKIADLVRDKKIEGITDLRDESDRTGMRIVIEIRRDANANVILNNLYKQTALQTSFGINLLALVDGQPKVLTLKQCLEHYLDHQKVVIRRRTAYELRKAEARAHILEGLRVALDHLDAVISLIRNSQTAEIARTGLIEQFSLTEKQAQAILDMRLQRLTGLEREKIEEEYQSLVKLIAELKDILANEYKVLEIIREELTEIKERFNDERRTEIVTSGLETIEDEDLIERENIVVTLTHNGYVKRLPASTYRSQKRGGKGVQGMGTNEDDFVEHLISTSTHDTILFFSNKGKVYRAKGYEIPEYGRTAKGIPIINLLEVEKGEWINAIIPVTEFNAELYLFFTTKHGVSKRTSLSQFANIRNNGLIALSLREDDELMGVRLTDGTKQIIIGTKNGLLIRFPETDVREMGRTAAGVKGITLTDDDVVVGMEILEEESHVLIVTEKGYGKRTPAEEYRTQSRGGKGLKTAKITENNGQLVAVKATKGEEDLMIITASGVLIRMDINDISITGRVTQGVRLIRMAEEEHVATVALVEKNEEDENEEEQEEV
DNA gyrase subunit A/B, sequence (P05652 whole entry): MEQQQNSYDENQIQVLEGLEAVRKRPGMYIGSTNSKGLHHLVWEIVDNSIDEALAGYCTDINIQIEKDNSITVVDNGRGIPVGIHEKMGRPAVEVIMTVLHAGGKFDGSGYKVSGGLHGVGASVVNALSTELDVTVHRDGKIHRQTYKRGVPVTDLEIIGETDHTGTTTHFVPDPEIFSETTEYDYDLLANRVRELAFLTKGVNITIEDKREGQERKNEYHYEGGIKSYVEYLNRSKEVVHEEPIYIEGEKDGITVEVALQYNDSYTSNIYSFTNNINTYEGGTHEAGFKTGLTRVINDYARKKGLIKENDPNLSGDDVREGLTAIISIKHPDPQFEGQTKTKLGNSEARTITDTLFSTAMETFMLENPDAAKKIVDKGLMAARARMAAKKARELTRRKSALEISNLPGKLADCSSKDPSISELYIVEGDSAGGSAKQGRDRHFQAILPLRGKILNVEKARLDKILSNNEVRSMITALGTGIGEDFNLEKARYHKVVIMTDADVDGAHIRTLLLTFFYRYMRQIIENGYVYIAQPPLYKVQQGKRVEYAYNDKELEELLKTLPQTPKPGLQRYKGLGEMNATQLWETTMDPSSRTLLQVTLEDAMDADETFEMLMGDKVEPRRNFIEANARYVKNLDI

DNA topoisomerase 4 subunit A [V210L]/B, sequence (Q45066 whole entry V210L): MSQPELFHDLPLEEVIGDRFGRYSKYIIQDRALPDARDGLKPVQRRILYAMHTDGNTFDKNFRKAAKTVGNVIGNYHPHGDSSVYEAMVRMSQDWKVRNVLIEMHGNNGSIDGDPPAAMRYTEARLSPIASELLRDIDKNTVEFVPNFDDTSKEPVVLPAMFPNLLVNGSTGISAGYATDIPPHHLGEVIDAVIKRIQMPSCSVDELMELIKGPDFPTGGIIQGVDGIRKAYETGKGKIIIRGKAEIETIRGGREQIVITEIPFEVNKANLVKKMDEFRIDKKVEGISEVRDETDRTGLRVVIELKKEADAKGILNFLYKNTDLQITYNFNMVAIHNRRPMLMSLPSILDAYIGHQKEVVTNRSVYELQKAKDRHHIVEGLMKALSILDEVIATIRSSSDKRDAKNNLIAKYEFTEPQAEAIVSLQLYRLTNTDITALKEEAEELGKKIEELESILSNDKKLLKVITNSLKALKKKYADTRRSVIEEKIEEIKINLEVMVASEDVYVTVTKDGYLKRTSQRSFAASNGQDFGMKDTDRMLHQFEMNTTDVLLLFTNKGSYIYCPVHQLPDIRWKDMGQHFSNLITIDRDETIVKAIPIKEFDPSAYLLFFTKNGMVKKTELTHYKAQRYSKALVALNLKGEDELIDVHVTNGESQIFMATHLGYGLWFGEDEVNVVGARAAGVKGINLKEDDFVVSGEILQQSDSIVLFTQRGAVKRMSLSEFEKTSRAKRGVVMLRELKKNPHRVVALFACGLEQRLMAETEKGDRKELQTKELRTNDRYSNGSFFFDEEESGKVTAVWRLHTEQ
DNA topoisomerase 4 subunit A [V210L]/B, sequence (Q59192 whole entry): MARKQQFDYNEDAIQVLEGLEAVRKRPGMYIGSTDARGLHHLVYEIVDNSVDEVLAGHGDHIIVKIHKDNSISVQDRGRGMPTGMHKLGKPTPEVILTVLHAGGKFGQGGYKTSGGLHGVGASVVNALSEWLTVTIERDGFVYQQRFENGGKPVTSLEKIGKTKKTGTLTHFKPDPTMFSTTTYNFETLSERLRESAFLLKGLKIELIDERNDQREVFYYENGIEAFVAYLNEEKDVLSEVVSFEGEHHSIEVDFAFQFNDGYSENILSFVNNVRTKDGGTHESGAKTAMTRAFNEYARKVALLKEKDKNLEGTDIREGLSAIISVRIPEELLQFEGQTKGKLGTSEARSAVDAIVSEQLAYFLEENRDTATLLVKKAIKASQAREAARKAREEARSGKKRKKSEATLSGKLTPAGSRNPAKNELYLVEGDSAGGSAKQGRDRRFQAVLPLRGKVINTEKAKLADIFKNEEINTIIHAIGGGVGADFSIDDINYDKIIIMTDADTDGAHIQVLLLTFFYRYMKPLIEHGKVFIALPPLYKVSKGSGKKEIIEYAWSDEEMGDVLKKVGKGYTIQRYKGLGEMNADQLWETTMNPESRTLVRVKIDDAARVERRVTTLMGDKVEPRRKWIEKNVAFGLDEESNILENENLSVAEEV
DNA polymerase III subunit alpha (Escherichia coli (strain K12), UniProt P10443), sequence (P10443 whole entry): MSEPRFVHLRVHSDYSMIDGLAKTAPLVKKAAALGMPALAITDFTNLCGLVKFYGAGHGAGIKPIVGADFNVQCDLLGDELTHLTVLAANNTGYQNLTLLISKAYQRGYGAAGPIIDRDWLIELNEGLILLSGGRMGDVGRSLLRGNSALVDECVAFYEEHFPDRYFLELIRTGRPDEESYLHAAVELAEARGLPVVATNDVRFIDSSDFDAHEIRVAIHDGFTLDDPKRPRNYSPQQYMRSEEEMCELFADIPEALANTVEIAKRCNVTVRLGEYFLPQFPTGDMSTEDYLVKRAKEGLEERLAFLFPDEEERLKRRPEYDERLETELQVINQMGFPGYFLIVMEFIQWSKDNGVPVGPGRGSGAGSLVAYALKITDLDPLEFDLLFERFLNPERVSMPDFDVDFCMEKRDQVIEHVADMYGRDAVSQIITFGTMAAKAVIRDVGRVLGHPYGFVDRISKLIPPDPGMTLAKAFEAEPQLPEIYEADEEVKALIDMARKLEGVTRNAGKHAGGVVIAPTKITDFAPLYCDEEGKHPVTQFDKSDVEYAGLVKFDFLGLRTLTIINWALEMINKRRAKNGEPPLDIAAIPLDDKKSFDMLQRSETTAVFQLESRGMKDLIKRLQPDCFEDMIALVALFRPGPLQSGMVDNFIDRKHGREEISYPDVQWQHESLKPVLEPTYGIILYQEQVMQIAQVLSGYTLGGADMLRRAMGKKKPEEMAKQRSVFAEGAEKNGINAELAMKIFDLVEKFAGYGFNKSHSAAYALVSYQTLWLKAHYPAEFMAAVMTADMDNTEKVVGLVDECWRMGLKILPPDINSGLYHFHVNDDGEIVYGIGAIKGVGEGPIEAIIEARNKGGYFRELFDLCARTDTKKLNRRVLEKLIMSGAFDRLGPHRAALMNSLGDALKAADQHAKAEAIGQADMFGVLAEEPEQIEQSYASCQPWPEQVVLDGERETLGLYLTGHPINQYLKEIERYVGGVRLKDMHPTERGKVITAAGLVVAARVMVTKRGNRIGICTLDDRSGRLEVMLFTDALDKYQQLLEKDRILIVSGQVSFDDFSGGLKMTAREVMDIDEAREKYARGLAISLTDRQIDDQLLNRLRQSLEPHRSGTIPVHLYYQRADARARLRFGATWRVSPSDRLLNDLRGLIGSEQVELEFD

Ki [1] [µM]	Ki [2] [µM]	SMILES	Ki [3] [µM]	IC50 [4] [µM]	IC50 (DNA gyrase subunit A/B) [µM]
> 482	> 482	CCc1cc(Nc2cc(=O)n(CCCCN3CCN(c4c(F)cc5c(=O)c(C(=O)O)cn(C6CC6)c5c4F)CC3C)c(=O)[nH]2)ccc1C (stereo unspecified)	> 482	–	–
–	–	CCc1cc(Nc2cc(=O)n(CCCCO)c(=O)[nH]2)ccc1C [HBEMAU]	> 1010	> 500	> 500
